Source: US20230390296A1, “NOVEL TREATMENT AND PREVENTION OF SARCOPENIA-RELATED DISEASES” (KEIO UNIVERSITY, priority 2020, published 2023)
“Also recorded” adds a separate entry of the source.

Legend:
[1] = test system: sarcopenia mouse models; experiment: Cardiac function test (echocardiogram and treadmill); assay type: in vivo; conditions: administered versus non-administered sarcopenia mouse models
Method: This Example used mouse models prepared in the Preparation Example.
Measurement can be taken using Kumamoto Mouse Clinic (KMC) of Kumamoto University.
Mouse models were divided into two groups. Cardiac function was tested for sarcopenia mouse models administered with OK-1 and sarcopenia mouse models without administration of OK-1. Cardiac function was tested and analyzed using an echocardiogram and treadmill.
Mouse models were divided into two groups. Cardiac function was tested for sarcopenia mouse models administered with C-82 and sarcopenia mouse models without administration of C-82. Cardiac function was tested and analyzed using an echocardiogram and treadmill.

[2] = test system: sarcopenia mouse models; experiment: Brain function behavioral tests (Barnes maze, fear conditioning, object recognition, open field, social behavior); assay type: in vivo; conditions: administered versus non-administered sarcopenia mouse models
Method: (§1) Mouse models were divided into two groups. Short term memory, long term memory, depression, activity level, social interaction, cognitive ability, etc., were tested using a Barnes maze, fear conditioning test, object recognition test, open field test, social behavior test (Crawley version), etc. on sarcopenia mouse models administered with OK-1 and sarcopenia mouse models without administration of OK-1.
These tests are described in http://www.fujita-hu.ac.jp/ to smedsci/behaviorcore/equipment/index.html, Barnes maze, a useful task to assess spatial reference memory in the mice (doi: 10.1038/nprot.2007.390), etc., which can be suitably referenced and practiced.
as §1, with “C-82” for “OK-1”, “C-82.” for “OK-1.”
These tests are described in http://www.fujita-hu.ac.jp/to smedsci/behaviorcore/equipment/index.html, Barnes maze, a useful task to assess spatial reference memory in the mice (doi: 10.1038/nprot.2007.390), etc., which can be suitably referenced and practiced.

[3] = test system: P301S mouse models; experiment: Tau phosphorylation, memory and brain atrophy in tauopathy model; assay type: in vivo; conditions: P301S (FTDP-17) mouse model
[4] = test system: sarcopenia mouse models; experiment: NTX (cross linked N-telopeptide of type I collagen) concentration; assay type: in vivo; conditions: administered versus non-administered sarcopenia mouse models
Method: Mouse models were divided into two groups. The NTX (cross linked N-telopeptide of type I collagen) concentration was measured for sarcopenia mouse models administered with OK-1 and sarcopenia mouse models without administration of OK-1.
Mouse models were divided into two groups. The NTX (cross linked N-telopeptide of type I collagen) concentration was measured for sarcopenia mouse models administered with C-82 and sarcopenia mouse models without administration of C-82.

[5] = test system: sarcopenia mouse models; experiment: Biochemical test on organ (creatine, IL-6, cholesterol etc. concentrations); assay type: in vivo; conditions: administered versus non-administered sarcopenia mouse models
Method: Mouse models were divided into two groups. The creatine concentration, IL-6 concentration, and cholesterol concentration were measured for sarcopenia mouse models administered with OK-1 and sarcopenia mouse models without administration of OK-1.
Mouse models were divided into two groups. The creatine concentration, IL-6 concentration, cholesterol concentration, UN (urea nitrogen is a biomarker that can predict the dysfunction of kidney or urinary system) concentration, and UA (uric acid is a biomarker for kidney or liver function) concentration were measured for sarcopenia mouse models administered with C-82 and sarcopenia mouse models without administration of C-82.

[6] = test system: 74-week old mice (C57B16/J); experiment: Grip strength test (smart grip strength meter); assay type: in vivo, mouse; conditions: 7 mg/kg and 20 mg/kg intraperitoneal twice a week for 6 weeks
Method: 74-week old mice (C57B16/J) were purchased from Oriental Yeast. Various concentrations (0 mg/kg (control), 7 mg/kg, and 20 mg/kg) of C-82 were administered twice a week through a 6-week intraperitoneal administration until reaching 80-week old. Muscle strength (endurance) and grip strength of mice administered with C-82 were then measured through a treadmill test and smart grip strength meter for rats and mice (Muromachi Kikai Co., Ltd.), respectively. The treadmill test was conducted under the same condition as Example 1.

[7] = test system: sarcopenia mouse models; experiment: Metabolic disease markers (LDH, ALT, TG, HDL-C, insulin, glucose, amylase, AST concentrations); assay type: in vivo; conditions: administered versus non-administered sarcopenia mouse models
Method: (§2) Mouse models were divided into two groups. LDH concentration, ALT concentration, TG concentration, HDL-C concentration, insulin concentration, glucose concentration, amylase concentration, AST concentration, and ALT concentration were measured for sarcopenia mouse models administered with OK-1 and sarcopenia mouse models without administration of OK-1.
as §2, with “C-82” for “OK-1”, “C-82.” for “OK-1.”

[8] = test system: C2C12 cells; experiment: Gene expression levels in treated cultured cells; assay type: cell-based, mouse
Method: Mouse striated muscle derived cells, i.e., C2C12 cells, were cultured and treated with OK-1, ICG-001, or C-82. Gene expression levels of cells treated with OK-1, ICG-001, or C-82, and untreated cells are compared.

[9] = Blood (plasma) test of six markers with biochemical automatic analyzer; assay type: in vivo, mouse
Method: 75-week old mice (C57B16/J) were purchased from Oriental Yeast. Various concentrations (0 mg/kg (control), 0.2 mg/kg, 2 mg/kg, 20 mg/kg, and 40 mg/kg) of OK-1 were administered twice a week for 12 weeks until reaching 87-week old. Blood (plasma) was then recovered, and the concentrations of the following six markers were measured using a biochemical automatic analyzer (JCA-BM6050, JEOL). • LDH: lactate dehydrogenase can predict a liver, myocardial, or skeletal muscle disorder, etc. A decrease in LDH is expected to have a therapeutic effect on acute hepatitis, chronic hepatitis, cirrhosis, liver cancer, and other liver diseases, acute myocardial infarction, congested heart failure, and other heart diseases, polymyositis, muscular dystrophy, and other muscular diseases, pernicious anemia, leukemia, hemolytic anemia, etc. • ALT: This is a biomarker that can predict a liver tissue disorder. A decrease in ALT is expected to have a therapeutic effect on acute hepatitis, chronic hepatitis, alcoholic hepatitis, cirrhosis, liver cancer, fatty liver, acute myocardial infarction and other heart diseases, progressive muscular dystrophy and other muscular diseases, etc. • TG: Neutral fat is used for predicting diabetes, obesity, or arteriosclerotic disease. A decrease in TG is expected to have a therapeutic effect on hyperchylomicronemia, LPL deficiency, diabetes, obesity, arteriosclerosis, gout, hypothyroidism, Cushing's syndrome, nephrotic syndrome, obstructive jaundice, acute/chronic pancreatitis, etc. • HDL-C: This is used as a marker for arteriosclerosis, diabetes, cirrhosis, etc., of HDL cholesterol. A decrease in HDL-C is expected to have a therapeutic effect on primary biliary cirrhosis and hyperthyroidism. • UN: Urea nitrogen is a biomarker that can predict dysfunction of kidney or urinary system. An increase in UN is expected to have a therapeutic effect on toxic hepatitis, fulminant hepatitis, end-stage of cirrhosis, diabetes insipidus, acromegaly, etc. • UA: Uric acid is a biomarker for kidney or liver function. An increase in UA is expected to have a therapeutic effect on cirrhosis, xanthinuria, Fanconi syndrome, Wilson's syndrome, glomerulonephritis, etc.

[10] = 75-week old mice, 0.2, 2, 20, 40 mg/kg twice a week for 12 weeks
[11] = at a specific OK-1 concentration, twice a week for 12 weeks

In the case of `C[C@H]1[C@H]2N(C(=O)CN(C)N2C(=O)NCc2ccccc2)[C@@H](Cc2ccc(O)cc2)C(=O)N1Cc1cccc2cccnc12` [C-82, (6S,9S)—N-benzyl-6-(4-hydroxybenzyl)-2,9-dimethyl-4,7-dioxo-8-(quinolin-8-ylmethyl)hexahydro-2H-pyrazino[2,1-c][1,2,4]triazine-1(6H)-carboxamide], the cardiac function [1] is reported as “cardiac function is improved”, the “short term memory, long term memory, depression, activity level, social interaction, cognitive ability” value [2] is reported as “short term memory, long term memory, depression, activity level, social interaction, and cognitive ability are improved” and the “phosphorylation of Tau, memory or brain atrophy” value [3] is reported as “suppression in phosphorylation of Tau and improvement in memory or brain atrophy are observed”. The “osteoporosis (from NTX concentration)” value [4] was “osteoporosis is improved”, the “kidney function and muscle (from creatine, IL-6, cholesterol, UN and UA concentrations)” value [5] was “kidney function and muscle improve” and the grip strength [6] was “a significant difference was not observed in grip strength, a tendency for a concentration dependent increase was observed; also recorded: a significant difference was not observed in grip strength, a tendency of a concentration dependent increase was observed”. For the same compound, the “pancreatic function, liver function and salivary gland function” value [7] was “pancreatic function, liver function, and salivary gland function are improved” and the “gene expression levels versus untreated cells” value [8] was “change in gene expression similar to Example 2”.
In the case of `C[C@H]1[C@H]2N(C(=O)CN(C)N2C(=O)NCc2ccccc2)[C@@H](Cc2ccc(OP(=O)(O)O)cc2)C(=O)N1Cc1cccc2cccnc12` [OK-1], the cardiac function [1] is reported as “cardiac function is improved”, the “short term memory, long term memory, depression, activity level, social interaction, cognitive ability” value [2] is reported as “short term memory, long term memory, depression, activity level, social interaction, and cognitive ability are improved” and the HDL-C concentration ([9]; 0.2 to 40 mg/kg twice a week for 12 weeks) is reported as “A significant change was not observed”. The LDH concentration [9, 10] was “reduces the LDH concentration”, the UA concentration [9, 10] was “increases the UA concentration at all concentrations” and the ALT concentration [9, 11] was “a decrease in the ALT concentration”. The TG concentration [9, 11] was “a decrease in TG concentration”, the UN concentration [9, 11] was “an increase in UN concentration” and the “phosphorylation of Tau, memory or brain atrophy” value [3] was “suppression in phosphorylation of Tau and improvement in memory or brain atrophy are observed”. For the same compound, the “osteoporosis (from NTX concentration)” value [4] was “osteoporosis is improved”, the “muscle (from creatine, IL-6 and cholesterol concentrations)” value [5] was “muscle improves” and the “pancreatic function, liver function and salivary gland function” value [7] was “pancreatic function, liver function, and salivary gland function are improved”. The “gene expression levels versus untreated cells” value [8] was “change in gene expression similar to Example 2”.
